Values of other authors, collected in PubChem BioAssay AID1259409 (Chemical Carcinogenesis Research Information System (CCRIS), 2018).

Tested on: rodent chemically induced tumor inhibition, incidence and multiplicity
Assay: CCRIS tumor inhibitor studies

In the case of `Cn1c(=O)[nH]c(=O)c2[nH]cnc21`, the “tumour outcome (control, treated, inhibition, significance)” value (Carcinogen: URETHANE, 51-79-6, Dose [Inhibitor]: 0.05 UMOL/G BW GIVEN AT 6 HR INTERVALS DURING THE PERIOD OF 0 TO 36 HR AFTER CARCINOGEN TREATMENT FOLLOWED BY 5 MO OBSER, Route [Inhibitor]: INTRAPERITONEAL, Species: MOUSE, Strain/Sex: ICR/FEMALE, Target Tissue: Type of Lesion: LUNG: PAPILLARY ADENOMA, Dose [Carcinogen]: 0.1 MG/G BW ONCE, Promoter: NONE USED) is listed as 31/59 (53%), 26/44 (59%), -11%, not significant and the “tumour outcome (control, treated, inhibition, significance)” value (Carcinogen: URETHANE, 51-79-6, Dose [Inhibitor]: 0.25 UMOL/G BW 1/D DURING THE PERIOD OF 5 TO 9 D AFTER CARCINOGEN TREATMENT FOLLOWED BY OBSERVATION PERIOD UNTIL END OF, Route [Inhibitor]: INTRAPERITONEAL, Species: MOUSE, Strain/Sex: ICR/FEMALE, Target Tissue: Type of Lesion: LUNG: PAPILLARY ADENOMA, Dose [Carcinogen]: 1 MG/G BW ONCE, Promoter: NONE USED) is listed as 49/53 (93%), 50/53 (94%), -1%, not significant.
For `CCCCCN(CCCCC)C(=O)C(CCC(=O)O)NC(=O)c1ccc(Cl)c(Cl)c1` (stereo unspecified), the “tumour outcome (control, treated, inhibition, significance)” value (Carcinogen: 7,12-DIMETHYLBENZ[A]ANTHRACENE, 57-97-6, Dose [Inhibitor]: 0, 12 MG/KG 2/D FOR 15 D POST CARCINOGEN TREATMENT (STUDY DURATION: 6 MO), Route [Inhibitor]: SUBCUTANEOUS, Species: RAT, Strain/Sex: SPRAGUE-DAWLEY/MALE, Target Tissue: Type of Lesion: PANCREAS: CARCINOMA, Dose [Carcinogen]: 2-3 MG ONCE, Promoter: CAERULEIN, 17650-98-5) is given as 11/15 (73%), 7/15 (47%), 36%, p<0.02, the “tumour outcome (control, treated, inhibition, significance)” value (Carcinogen: AZASERINE, 115-02-6, Dose [Inhibitor]: 0, 12 MG/KG BW 1/D 3 D/WK FOR 8 MO BEGINNING 4 MO POST FIRST CARCINOGEN DOSE (STUDY DURATION: 8 MO), Route [Inhibitor]: SUBCUTANEOUS, Species: RAT, Strain/Sex: WISTAR/MALE, Target Tissue: Type of Lesion: PANCREAS: TUMOR, Dose [Carcinogen]: 30 MG/KG ON DAYS 19, 26, AND 54 OF AGE, Promoter: CHOLECYSTOKININ, 9011-97-6) is given as 19/34 (56%), 15/35 (43%), 23%, not significant and the “tumour outcome (control, treated, inhibition, significance)” value (Carcinogen: AZASERINE, 115-02-6, Dose [Inhibitor]: 0, 12 MG/KG BW 1/D 30 MIN PRIOR TO PROMOTER DOSE 3 D/WK FOR 8 MO BEGINNING 4 MO POST FIRST CARCINOGEN DOSE (STUDY DURATI, Route [Inhibitor]: SUBCUTANEOUS, Species: RAT, Strain/Sex: WISTAR/MALE, Target Tissue: Type of Lesion: PANCREAS: TUMOR, Dose [Carcinogen]: 30 MG/KG ON DAYS 19, 26, AND 54 OF AGE, Promoter: BOMBESIN, 31362-50-2) is given as 28/37 (76%), 18/32 (56%), 26%, not significant.
For `CC(C)=C1C=C(C(C)C)C(O)CC1` (stereo unspecified), the “tumour outcome (control, treated, inhibition, significance)” value (Carcinogen: 7,12-DIMETHYLBENZ[A]ANTHRACENE, 57-97-6, Dose [Inhibitor]: 0, 12 NMOL PER REPEATED APPLICATION FOR 20 WK (STUDY DURATION: 20 WK), Route [Inhibitor]: DERMAL, Species: MOUSE, Strain/Sex: CD-1/FEMALE, Target Tissue: Type of Lesion: SKIN: TUMOR, Dose [Carcinogen]: 100 UG ONCE, Promoter: OKADAIC ACID, 78111-17-8) is given as 87%, 33%, 62%, not calculated.
For `O=C1C=C(/C=C/c2ccccc2)C(O)O1` (stereo unspecified), the “tumour outcome (control, treated, inhibition, significance)” value (Carcinogen: AZOXYMETHANE, 25843-45-2, Dose [Inhibitor]: 0, 0.02% IN DIET FOR FIRST 3 WK OF STUDY (STUDY DURATION: 1 YR), Route [Inhibitor]: ORAL, Species: RAT, Strain/Sex: F344/MALE, Target Tissue: Type of Lesion: INTESTINE: ADENOMA OR ADENOCARCINOMA, Dose [Carcinogen]: 15 MG/KG BW ONCE IN WK 1 AND ONCE IN WK 3 OF STUDY, Promoter: NONE USED) is listed as 20/27 (74%), 7/18 (39%), 47%, p<0.02, the “tumour outcome (control, treated, inhibition, significance)” value (Carcinogen: AZOXYMETHANE, 25843-45-2, Dose [Inhibitor]: 0, 100 PPM IN DIET FOR DURATION OF STUDY BEGINNING 1 WK POST CARCINOGEN TREATMENT (STUDY DURATION: 32 WK), Route [Inhibitor]: ORAL, Species: RAT, Strain/Sex: F344/MALE, Target Tissue: Type of Lesion: LARGE INTESTINE: ADENOCARCINOMA, Dose [Carcinogen]: 15 MG/KG BW 1/WK FOR 3 WK, Promoter: NONE USED) is listed as 10/30 (33%), 5/28 (18%), 45%, not significant and the “tumour outcome (control, treated, inhibition, significance)” value (Carcinogen: AZOXYMETHANE, 25843-45-2, Dose [Inhibitor]: 0, 100 PPM IN DIET FOR DURATION OF STUDY BEGINNING 1 WK POST CARCINOGEN TREATMENT (STUDY DURATION: 32 WK), Route [Inhibitor]: ORAL, Species: RAT, Strain/Sex: F344/MALE, Target Tissue: Type of Lesion: LARGE INTESTINE: ADENOMA, Dose [Carcinogen]: 15 MG/KG BW 1/WK FOR 3 WK, Promoter: NONE USED) is listed as 1/30 (3%), 2/28 (7%), -133%, not significant. The “tumour outcome (control, treated, inhibition, significance)” value (Carcinogen: AZOXYMETHANE, 25843-45-2, Dose [Inhibitor]: 0, 100 PPM IN DIET FOR DURATION OF STUDY BEGINNING 1 WK POST CARCINOGEN TREATMENT (STUDY DURATION: 32 WK), Route [Inhibitor]: ORAL, Species: RAT, Strain/Sex: F344/MALE, Target Tissue: Type of Lesion: SMALL INTESTINE: ADENOCARCINOMA, Dose [Carcinogen]: 15 MG/KG BW 1/WK FOR 3 WK, Promoter: NONE USED) was 12/30 (40%), 7/28 (25%), 38%, not significant, the “tumour outcome (control, treated, inhibition, significance)” value (Carcinogen: AZOXYMETHANE, 25843-45-2, Dose [Inhibitor]: 0, 100 PPM IN DIET FOR DURATION OF STUDY BEGINNING 1 WK POST CARCINOGEN TREATMENT (STUDY DURATION: 32 WK), Route [Inhibitor]: ORAL, Species: RAT, Strain/Sex: F344/MALE, Target Tissue: Type of Lesion: SMALL INTESTINE: ADENOMA, Dose [Carcinogen]: 15 MG/KG BW 1/WK FOR 3 WK, Promoter: NONE USED) was 1/30 (3%), 1/28 (4%), -33%, not significant and the “tumour outcome (control, treated, inhibition, significance)” value (Carcinogen: AZOXYMETHANE, 25843-45-2, Dose [Inhibitor]: 0, 200 PPM IN DIET FOR DURATION OF STUDY BEGINNING 1 WK POST CARCINOGEN TREATMENT (STUDY DURATION: 32 WK), Route [Inhibitor]: ORAL, Species: RAT, Strain/Sex: F344/MALE, Target Tissue: Type of Lesion: LARGE INTESTINE: ADENOCARCINOMA, Dose [Carcinogen]: 15 MG/KG BW 1/WK FOR 3 WK, Promoter: NONE USED) was 10/30 (33%), 3/28 (11%), 67%, p<0.05. The “tumour outcome (control, treated, inhibition, significance)” value (Carcinogen: AZOXYMETHANE, 25843-45-2, Dose [Inhibitor]: 0, 200 PPM IN DIET FOR DURATION OF STUDY BEGINNING 1 WK POST CARCINOGEN TREATMENT (STUDY DURATION: 32 WK), Route [Inhibitor]: ORAL, Species: RAT, Strain/Sex: F344/MALE, Target Tissue: Type of Lesion: LARGE INTESTINE: ADENOMA, Dose [Carcinogen]: 15 MG/KG BW 1/WK FOR 3 WK, Promoter: NONE USED) was 1/30 (3%), 2/28 (7%), -133%, not significant, the “tumour outcome (control, treated, inhibition, significance)” value (Carcinogen: AZOXYMETHANE, 25843-45-2, Dose [Inhibitor]: 0, 200 PPM IN DIET FOR DURATION OF STUDY BEGINNING 1 WK POST CARCINOGEN TREATMENT (STUDY DURATION: 32 WK), Route [Inhibitor]: ORAL, Species: RAT, Strain/Sex: F344/MALE, Target Tissue: Type of Lesion: SMALL INTESTINE: ADENOCARCINOMA, Dose [Carcinogen]: 15 MG/KG BW 1/WK FOR 3 WK, Promoter: NONE USED) was 12/30 (40%), 2/28 (7%), 83%, p<0.005 and the “tumour outcome (control, treated, inhibition, significance)” value (Carcinogen: AZOXYMETHANE, 25843-45-2, Dose [Inhibitor]: 0, 200 PPM IN DIET FOR DURATION OF STUDY BEGINNING 1 WK POST CARCINOGEN TREATMENT (STUDY DURATION: 32 WK), Route [Inhibitor]: ORAL, Species: RAT, Strain/Sex: F344/MALE, Target Tissue: Type of Lesion: SMALL INTESTINE: ADENOMA, Dose [Carcinogen]: 15 MG/KG BW 1/WK FOR 3 WK, Promoter: NONE USED) was 1/30 (3%), 0/28 (0%), 100%, not significant.
For `CC1=C(/C=C/C(C)=C/C=C/C(C)=C/C(=O)Nc2ccc(O[C@@H]3O[C@H](C(=O)O)[C@@H](O)C(O)C3O)cc2)C(C)(C)CCC1` (stereo partly specified), the “tumour outcome (control, treated, inhibition, significance)” value (Carcinogen: 7,12-DIMETHYLBENZ[A]ANTHRACENE, 57-97-6, Dose [Inhibitor]: 0, 1 MMOL/KG IN DIET FOR THE DURATION OF STUDY BEGINNING 1 WK PRIOR TO CARCINOGEN DOSE (STUDY DURATION: 105 WK), Route [Inhibitor]: ORAL, Species: RAT, Strain/Sex: SPRAGUE-DAWLEY/FEMALE, Target Tissue: Type of Lesion: MAMMARY GLAND: TUMOR, Dose [Carcinogen]: 15 MG IN 1 ML SESAME OIL ONCE, Promoter: NONE USED) is listed as 88%, 36%, 59%, not significant.
